Each block holds one molecule with its values, some of them ahead of it.
Key:
mGlu1 P58H/N264H mutant = target: T1, mGlu1 P58H/N264H mutant (Rattus norvegicus, UniProt P23385, N264H/P58H); assay: Fura-2 Ca2+ imaging in HEK293 cells expressing mGlu1 P58H/N264H; type: cell-based; settings: for Receptor activation ([Ca2+]i change, Δratio): 10 μM metal ion or metal complex; for Δratio of 3 µM Pd(bpy)-induced response, ave / Δratio of 10 µM glutamate-induced response, ave: n = 20
T1 construct: expressed in transfected cells; host or cells: HEK293

mGlu1 A59H/N264H mutant = target: T2, mGlu1 A59H/N264H mutant (Rattus norvegicus, UniProt P23385, A59H/N264H); assay: Fura-2 Ca2+ imaging in HEK293 cells expressing mGlu1 A59H/N264H; type: cell-based; settings: 10 μM metal ion or metal complex
T2 construct: expressed in transfected cells; host or cells: HEK293

mGlu1 K61H/N264H mutant = target: T3, mGlu1 K61H/N264H mutant (Rattus norvegicus, UniProt P23385, K61H/N264H); assay: Fura-2 Ca2+ imaging in HEK293 cells expressing mGlu1 K61H/N264H; type: cell-based; settings: 10 μM metal ion or metal complex
T3 construct: expressed in transfected cells; host or cells: HEK293

mGlu1 P57H/N264H mutant = target: T4, mGlu1 P57H/N264H mutant (Rattus norvegicus, UniProt P23385, N264H/P57H); assay: Fura-2 Ca2+ imaging in HEK293 cells expressing mGlu1 P57H/N264H; type: cell-based; settings: 10 μM metal ion or metal complex
T4 construct: expressed in transfected cells; host or cells: HEK293

mGlu1 E60H/N264H mutant = target: T5, mGlu1 E60H/N264H mutant (Rattus norvegicus, UniProt P23385, E60H/N264H); assay: Fura-2 Ca2+ imaging in HEK293 cells expressing mGlu1 E60H/N264H; type: cell-based; settings: 10 μM metal ion or metal complex
T5 construct: expressed in transfected cells; host or cells: HEK293

[1] = system: Purkinje cells in cerebellar slices from mGlu1^+/+ mice; assay: chemLTD recording (PF-EPSC) in Purkinje cells of acute cerebellar slices, mGlu1^+/+ mice; type: cell-based, mouse; settings: DHPG 50 μM for 10 min; t = 31−35 min
Experimental: (§1) Sagittal cerebellar slices were cut with a microslicer (Linear slicer Pro7; DOSAKA EM) in cutting solution buffer and then incubated in ACSF gassed with 5% CO2 and 95% O2 at room temperature.
(§2) Whole-cell patch-clamp recordings were made from visually identified Purkinje cells using a 60× water-immersion objective attached to an upright microscope (BX51WI, Olympus) at room temperature, as described previously. […] Picrotoxin (100 µM; Sigma) was always added to the saline to block inhibitory synaptic transmission.
(§3) To evoke EPSCs derived from CF (CF-EPSCs) and PF (PF-EPSCs) inputs onto Purkinje cells, square pulses were applied through a stimulating electrode placed on the granular layer and the molecular layer (50 µm away from the pial surface), respectively. The selective stimulation of CFs and PFs was confirmed by the paired-pulse depression (PPD) and paired-pulse facilitation (PPF) of EPSC amplitudes at a 50-ms interstimulus interval (ISI), respectively.
(§4) For the LTD sessions, PF-EPSCs were recorded successively at a frequency of 0.1 Hz from Purkinje cells clamped at –80 mV. After a stable PF-EPSC amplitude had been observed for at least 5 min, a conjunctive stimulation that consisted of 30 single PF stimuli together with a 200 ms depolarizing pulse from a holding potential of –60 to +20 mV was applied for LTD induction.
(§5) To chemically induce LTD (chemLTD), 50 µM (S)-3,5-dihydroxyphenylglycine (DHPG) or 1 µM Pd(sulfo-bpy) was applied for 10 min in a current-clamp mode. We often observed a transient decrease in PF-EPSC amplitude after the application of each drug probably because Purkinje cells under current-clamp conditions excite spontaneously to suppress presynaptic function through the retrograde signaling. Access resistances were monitored every 10 s by measuring the peak currents in response to 2 mV, 50-ms hyperpolarizing steps throughout the experiments; the measurements were discarded if the resistance changed by >20% of its original value. The normalized EPSC amplitude on the ordinate represents the EPSC amplitude for the average of six traces for 1 min divided by that of the average of six traces for 1 min immediately before the conjunctive stimulation or the drug application.

[2] = system: Purkinje cells in cerebellar slices from mGlu1^CBC/CBC mice; assay: chemLTD recording (PF-EPSC) in Purkinje cells of acute cerebellar slices, mGlu1^CBC/CBC mice; type: cell-based, mouse; settings: DHPG 50 μM for 10 min; t = 31−35 min
Experimental: as §1, §2, §3, §4, §5

[3] = system: MLIs infected with AAV-hSyn-mGlu1^CBC; assay: sAP-mediated currents (firing rate) of MLIs infected with AAV-hSyn-mGlu1^CBC; type: cell-based, mouse
Experimental: (§6) To monitor the excitability of MLIs, sAP-mediated current responses were extracellulary recorded by a loose cell-attached voltage-clamp at a holding potential of 0 mV. Glass electrodes used for cell-attached recordings had resistances of 3–5 MΩ when filled with ACSF. The current recordings from AAV-infected cells were performed 1−2 weeks after infection. The EPSCs and sAP-mediated currents were recorded using an Axopatch 200B amplifier (Molecular Devices), and the pClamp system (version 9.2; Molecular Devices) was used for data acquisition and analysis. The signals were filtered at 1 kHz and digitized at 4 kHz for the evoked EPSCs and 10 kHz for the sAP-mediated currents.
(§7) Injection of viral solutions was performed as described previously with slight modifications. Briefly, under deep anesthesia, with an intraperitoneal injection of medetomidine (0.3 mg/kg), midazolam (4.0 mg/kg), and butorphanol (5.0 mg/kg), 4 µL of the solutions containing AAV mixture were directly injected into the vermis of cerebellar lobules V-VIII (200-300 µm in depth, 12 µL/h in rate) of WT mice (C57BL/6J, P20-P30) using glass pipette (30–40 µm in diameter) and microinjector (Nanoliter; World Precision Instruments). In all, 1−2 week after injection, the mice were used for each experiment.

[4] = system: MLIs infected with AAV-hSyn-mGlu1^WT; assay: sAP-mediated currents (firing rate) of MLIs infected with AAV-hSyn-mGlu1^WT; type: cell-based, mouse
Experimental: as §6, §7

mGlu1(N264H) mutant = target: T6, mGlu1(N264H) mutant (Rattus norvegicus, UniProt P23385, N264H); assay: Fura-2 Ca2+ imaging in HEK293 cells expressing mGlu1(N264H); type: cell-based; settings: 10 µM LY367385, 1 µM FITM, 10 µM YM254890 or 1 µM U73122
T6 construct: expressed in transfected cells; host or cells: HEK293

primary cortical neurons = assay: Fura-2 Ca2+ imaging (abnormal Ca2+ response) in cultured cortical neurons; settings: co-treated 30 µM LY367385, 1 µM FITM or 10 µM U73122
[5] = Suppl Fig14d, AAV-hSyn-mGlu1CBC, mean of 15 cells
[6] = Suppl Fig14d, AAV-hSyn-mGlu1WT, mean of 12 cells

T5 sequence (P23385 19-1199 E60H/N264H): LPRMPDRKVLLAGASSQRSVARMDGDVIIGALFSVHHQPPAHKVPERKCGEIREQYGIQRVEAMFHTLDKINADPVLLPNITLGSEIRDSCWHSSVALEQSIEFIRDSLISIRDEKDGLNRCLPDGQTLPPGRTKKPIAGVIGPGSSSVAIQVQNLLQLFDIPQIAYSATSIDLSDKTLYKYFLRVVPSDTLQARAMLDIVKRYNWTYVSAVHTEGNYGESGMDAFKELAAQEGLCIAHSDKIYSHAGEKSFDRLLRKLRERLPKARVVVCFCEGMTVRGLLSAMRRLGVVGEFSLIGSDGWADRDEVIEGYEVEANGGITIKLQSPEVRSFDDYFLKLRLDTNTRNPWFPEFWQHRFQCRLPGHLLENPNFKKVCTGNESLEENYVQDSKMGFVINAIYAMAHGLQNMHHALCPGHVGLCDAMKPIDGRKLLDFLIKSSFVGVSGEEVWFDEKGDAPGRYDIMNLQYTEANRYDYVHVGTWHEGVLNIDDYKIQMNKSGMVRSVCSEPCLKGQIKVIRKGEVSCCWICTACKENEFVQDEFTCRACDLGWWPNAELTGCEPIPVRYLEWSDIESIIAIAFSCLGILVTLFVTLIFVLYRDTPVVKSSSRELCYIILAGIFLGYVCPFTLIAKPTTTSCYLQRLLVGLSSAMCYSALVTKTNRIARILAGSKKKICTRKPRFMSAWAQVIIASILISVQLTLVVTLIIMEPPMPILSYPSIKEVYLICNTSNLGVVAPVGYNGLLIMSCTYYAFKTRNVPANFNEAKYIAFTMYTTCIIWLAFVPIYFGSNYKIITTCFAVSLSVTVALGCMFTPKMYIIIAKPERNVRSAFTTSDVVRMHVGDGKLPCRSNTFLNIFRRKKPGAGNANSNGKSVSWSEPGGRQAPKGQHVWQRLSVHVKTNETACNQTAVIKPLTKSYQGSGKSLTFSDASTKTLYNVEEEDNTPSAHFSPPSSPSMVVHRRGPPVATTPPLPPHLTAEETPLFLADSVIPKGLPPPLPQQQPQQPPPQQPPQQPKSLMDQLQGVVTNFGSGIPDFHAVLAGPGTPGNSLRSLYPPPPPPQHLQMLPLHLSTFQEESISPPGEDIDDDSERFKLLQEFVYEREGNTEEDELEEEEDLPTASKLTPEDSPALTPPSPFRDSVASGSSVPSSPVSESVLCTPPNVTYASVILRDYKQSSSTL
T4 sequence (P23385 19-1199 P57H/N264H): as the sequence (P23385 19-1199 E60H/N264H) above, with P39H, H42E counted along it
T1 sequence (P23385 19-1199 P58H/N264H): as the sequence (P23385 19-1199 E60H/N264H) above, with P40H, H42E counted along it
T2 sequence (P23385 19-1199 A59H/N264H): as the sequence (P23385 19-1199 E60H/N264H) above, with A41H, H42E counted along it
T3 sequence (P23385 19-1199 K61H/N264H): as the sequence (P23385 19-1199 E60H/N264H) above, with H42E, K43H counted along it
T6 sequence (P23385 19-1199 N264H): as the sequence (P23385 19-1199 E60H/N264H) above, with H42E counted along it

SMILES: [Cd+2] [Cd^2+, reference compound]
Receptor activation ([Ca2+]i change, Δratio) (mGlu1 P58H/N264H mutant): failed to activate | Receptor activation ([Ca2+]i change, Δratio) (mGlu1 A59H/N264H mutant): failed to activate | Receptor activation ([Ca2+]i change, Δratio) (mGlu1 K61H/N264H mutant): failed to activate | Receptor activation ([Ca2+]i change, Δratio) (mGlu1 P57H/N264H mutant): failed to activate | Receptor activation ([Ca2+]i change, Δratio) (mGlu1 E60H/N264H mutant): failed to activate

SMILES: [Cu+2] [Cu^2+, reference compound]
Receptor activation ([Ca2+]i change, Δratio) (mGlu1 P58H/N264H mutant): failed to activate | Receptor activation ([Ca2+]i change, Δratio) (mGlu1 A59H/N264H mutant): failed to activate | Receptor activation ([Ca2+]i change, Δratio) (mGlu1 K61H/N264H mutant): failed to activate | Receptor activation ([Ca2+]i change, Δratio) (mGlu1 P57H/N264H mutant): failed to activate | Receptor activation ([Ca2+]i change, Δratio) (mGlu1 E60H/N264H mutant): failed to activate

SMILES: N[C@H](C(=O)O)c1cc(O)cc(O)c1 [DHPG, (S)-3,5-dihydroxyphenylglycine]
chemLTD: normalized PF-EPSC amplitude [1]: 55 ± 7% | chemLTD: normalized PF-EPSC amplitude [2]: 56 ± 6% | firing rate, DHPG (50uM), AVE(Hz) ([3]; Suppl Fig14d, AAV-hSyn-mGlu1CBC, mean): 11.5511 Hz | DHPG/CTL, AVE [3, 5]: 1.507 | sAP events, DHPG (50uM), AVE [3, 5]: 346.533 | Number of spontaneous action potentials (sAP) ([3]; bath application of 50 µM DHPG): clearly increased | firing rate, DHPG (50uM), AVE(Hz) ([4]; Suppl Fig14d, AAV-hSyn-mGlu1WT, mean): 10.6722 Hz | DHPG/CTL, AVE [4, 6]: 1.47 | sAP events, DHPG (50uM), AVE [4, 6]: 320.167 | Number of spontaneous action potentials (sAP) ([4]; bath application of 50 µM DHPG): clearly increased

Effect on Pd(bpy)-induced Ca2+ responses (mGlu1 P58H/N264H mutant; 10 μM LY367385, 3 µM Pd(bpy)): inhibited | Δratio of 3 µM Pd(bpy)-induced response, ave (mGlu1 P58H/N264H mutant; [LY367385] 0.1 µM): 0.1859 | Δratio of 10 µM glutamate-induced response, ave (mGlu1 P58H/N264H mutant; [LY367385] 0.1 µM): 0.243 | Δratio of 3 µM Pd(bpy)-induced response, ave (mGlu1 P58H/N264H mutant; [LY367385] 0.3 µM): 0.1915 | Δratio of 10 µM glutamate-induced response, ave (mGlu1 P58H/N264H mutant; [LY367385] 0.3 µM): 0.2897 | Δratio of 3 µM Pd(bpy)-induced response, ave (mGlu1 P58H/N264H mutant; [LY367385] 1 µM): 0.262 | Δratio of 10 µM glutamate-induced response, ave (mGlu1 P58H/N264H mutant; [LY367385] 1 µM): 0.3662 | Δratio of 3 µM Pd(bpy)-induced response, ave (mGlu1 P58H/N264H mutant; [LY367385] 3 µM): 0.1837 | Δratio of 10 µM glutamate-induced response, ave (mGlu1 P58H/N264H mutant; [LY367385] 3 µM): 0.2021 | Δratio of 3 µM Pd(bpy)-induced response, ave (mGlu1 P58H/N264H mutant; [LY367385] 10 µM): 0.007225 | Δratio of 10 µM glutamate-induced response, ave (mGlu1 P58H/N264H mutant; [LY367385] 10 µM): 0.09778 | Δratio of 3 µM Pd(bpy)-induced response, ave (mGlu1 P58H/N264H mutant; [LY367385] 30 µM): 0.008008 | Δratio of 10 µM glutamate-induced response, ave (mGlu1 P58H/N264H mutant; [LY367385] 30 µM): 0.0409 | Δratio of 3 µM Pd(bpy)-induced response, ave (mGlu1 P58H/N264H mutant; [LY367385] 100 µM): 0.01163 | Δratio of 10 µM glutamate-induced response, ave (mGlu1 P58H/N264H mutant; [LY367385] 100 µM): 0.05699 | Effect on glutamate-induced Ca2+ responses (mGlu1 P58H/N264H mutant; pretreatment with LY367385, 10 µM glutamate): suppressed | Effect of pre-treated inhibitor on 10 µM Pd(bpy)-induced Ca2+ responses (mGlu1(N264H) mutant): inhibited
SMILES: Cc1cc(C(=O)O)ccc1[C@H](N)C(=O)O [LY367385, reference compound]
Effect of inhibitor on 30 µM Pd(bpy)-induced [Ca2+]i elevation (primary cortical neurons): suppressed by neither

SMILES: [Ni+2] [Ni^2+, reference compound]
Receptor activation ([Ca2+]i change, Δratio) (mGlu1 P58H/N264H mutant): failed to activate | Receptor activation ([Ca2+]i change, Δratio) (mGlu1 A59H/N264H mutant): failed to activate | Receptor activation ([Ca2+]i change, Δratio) (mGlu1 K61H/N264H mutant): failed to activate | Receptor activation ([Ca2+]i change, Δratio) (mGlu1 P57H/N264H mutant): failed to activate | Receptor activation ([Ca2+]i change, Δratio) (mGlu1 E60H/N264H mutant): failed to activate

— paper PMC9203742 (Nature Communications, 2022)
